According to patent publication US20230301925A1, “PHOSPHOLIPID PRESENTING PARTICLES FOR CELL TARGETING IN THERAPY AND DIAGNOSTICS” (UNIVERSITY OF SOUTH CAROLINA, priority 2022, published 2023):

Test system: BMDMs
Experiment: UNC2025 with PS:PLG particle treatment of LPS-inflamed primary macrophages
Assay type: cell-based, mice
Details: LPS 1 ng/mL, PS:PLG 1:10 cell to particle ratio
Experimental: FIG. 10 depicts TNF-α secreted by BMDMs pre-treated with UNC2025 followed by a co-treatment with LPS (1 ng/mL) and PS:PLG (1:10 cell to particle ratio).
FIG. 11 depicts IL-6 secreted by BMDMs pre-treated with UNC2025 followed by a co-treatment with LPS (1 ng/mL) and PS:PLG (1:10 cell to particle ratio).
FIG. 12 depicts IL-10 secreted by BMDMs pre-treated with UNC2025 followed by a co-treatment with LPS (1 ng/mL) and PS:PLG (1:10 cell to particle ratio).
This effect is not limited to UNC2025 but applicable to a broad range of bioactive molecules including small molecules, nucleic acids, peptides, lipids, glycans, etcetera.

Which “anti-inflammatory response of PS:PLG particle treatment with co-delivery of small molecule (TNF-α, IL-6, IL-10)” value does the source give for `CCCCNc1ncc2c(-c3ccc(CN4CCN(C)CC4)cc3)cn([C@H]3CC[C@H](O)CC3)c2n1` [UNC2025] here?
The value was “synergistically enhanced”.
